Like-named read-outs stand apart in the source and are kept apart here.
Assays:
[1] = test system: mitochondria isolated from Saccharomyces cerevisiae; type: biochemical
[2] = test system: immobilized mouse liver mitochondria; type: biochemical
[3] = before vs after overnight soak at 4° C. in pesticide solution, average ± standard deviation

O=C(O)COc1ccc(Cl)cc1Cl [2,4-D, 2,4-Dichlorophenoxyacetic acid]
change in peak area (ΔAh) [1]: −8.237E−05 ± 1.713E−05 C | change in peak height (Δip) [1]: −1.617E−06 ± 5.286E−07 A

CCNc1nc(Cl)nc(NC(C)C)n1 [Atrazine]
change in peak area (ΔAh) [1]: −6.809E−05 ± 1.708E−05 C | change in peak height (Δip) [1]: −8.290E−07 ± 2.197E−07 A

COc1ccc2nc([S@@+]([O-])Cc3ncc(C)c(OC)c3C)[nH]c2c1 [Esomeprazole]
attenuated current [2]: 16.8±6.4% | attenuation (decrease) in current [2]: 1.7±10.3% | attenuation in metabolic energy conversion [2]: 19.9±7.6% | attenuation in metabolic energy production [2]: 58.8±11.1%

C[n+]1ccc(-c2cc[n+](C)cc2)cc1 [Paraquat]
change in peak area (ΔAh) [1]: −3.690E−05 ± 1.109E−05 C | change in peak height (Δip) [1]: −8.582E−07 ± 1.870E−07 A

CCOP(=S)(OCC)Oc1ccc([N+](=O)[O-])cc1 [Parathion]
change in peak area (ΔAh) [1, 3]: −2.721E−05 ± 9.349E−06 C | change in peak height (Δip) [1, 3]: −4.491E−07 ± 2.512E−07 A

CC1(C)C(C=C(Cl)Cl)C1C(=O)OCc1cccc(Oc2ccccc2)c1 (stereo not drawn) [Permethrin]
change in peak area (ΔAh) [1]: −6.597E−05 ± 1.238E−05 C | change in peak height (Δip) [1]: −1.015E−06 ± 2.065E−07 A

O=C(O)c1ccccc1O [Salicylic acid]
change in current after treatment (in words) [2]: not statistically significant | higher metabolic energy flux than untreated mitochondria [2]: 18.6±1.5%

CC1=NS(=O)(=O)c2cc(Cl)ccc2N1 [diazoxide]
inhibition of mitochondrial function (in words) [2]: partial inhibition

CC[C@H]1/C=C/C=C/C[C@@H](C)[C@H](O)[C@@](C)(O)C(=O)[C@@H](C)[C@H](O)[C@@H](C)C(=O)[C@@H](C)[C@H](O)[C@@H](C)/C=C/C(=O)O[C@@H]2[C@H](C)[C@H](CC1)O[C@]1(CC[C@H](C)[C@H](C[C@@H](C)O)O1)[C@H]2C [oligomycin]
attenuation (decrease) in current [2]: 36.5±3.7% | attenuation in metabolic energy conversion [2]: 60.9±1.0%

C=C(C)[C@H]1Cc2c(ccc3c2O[C@@H]2COc4cc(OC)c(OC)cc4[C@@H]2C3=O)O1 [rotenone]
inhibition of mitochondrial function (in words) [2]: strong inhibitory response

antimycin
inhibition of mitochondrial function (in words) [2]: strong inhibitory response

— US8845879B2 (priority 2010, dated 2014)
